Reference: paper PMC8119466, “A screen of FDA-approved drugs identifies inhibitors of protein tyrosine phosphatase 4A3 (PTP4A3 or PRL-3)” (Scientific Reports, 2021)
Where a name gives a salt, the structure may show the parent alone. Read-outs that look alike come from different tables or passages of the source.

Columns and labels:
Assay type in all cases: biochemical
recombinant PRL-1 = target: T1, recombinant PRL-1 (Homo sapiens, UniProt Q93096); assay: In vitro phosphatase assay (DiFMUP hydrolysis), PRL-1; also: test concentration or dose not given here
T1 construct: 6xHis (N, cleaved yes); made in house; host or cells: E. coli One Shot BL21 Star
T1 sequence (Q93096 1-173): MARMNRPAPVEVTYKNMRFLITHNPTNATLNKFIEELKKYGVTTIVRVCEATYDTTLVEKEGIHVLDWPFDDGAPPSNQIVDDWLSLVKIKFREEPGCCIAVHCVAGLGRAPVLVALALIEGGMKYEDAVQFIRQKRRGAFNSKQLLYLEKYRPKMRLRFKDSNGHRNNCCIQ

recombinant PRL-3 = target: T2, recombinant PRL-3 (Homo sapiens, UniProt O75365); assay: In vitro phosphatase assay (DiFMUP hydrolysis), PRL-3; also: test concentration or dose not given here
T2 construct: 6xHis (N, cleaved yes); made in house; host or cells: E. coli One Shot BL21 Star
T2 sequence (O75365 whole entry): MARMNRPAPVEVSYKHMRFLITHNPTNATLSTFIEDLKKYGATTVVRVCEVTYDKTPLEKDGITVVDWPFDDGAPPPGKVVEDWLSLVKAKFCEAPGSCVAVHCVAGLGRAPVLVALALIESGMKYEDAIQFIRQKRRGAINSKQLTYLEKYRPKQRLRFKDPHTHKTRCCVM

recombinant PRL-2 = target: T3, recombinant PRL-2 (Homo sapiens, UniProt Q12974); assay: In vitro phosphatase assay (DiFMUP hydrolysis), PRL-2;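 also: PRL-2 activity read as DiFMUP hydrolysis after 20 min at room temperature with drug, enzyme first pre-reduced at 4 °C for 20 min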
T3 construct: 6xHis (N, cleaved yes); made in house; host or cells: E. coli One Shot BL21 Star
T3 sequence (Q12974 1-167): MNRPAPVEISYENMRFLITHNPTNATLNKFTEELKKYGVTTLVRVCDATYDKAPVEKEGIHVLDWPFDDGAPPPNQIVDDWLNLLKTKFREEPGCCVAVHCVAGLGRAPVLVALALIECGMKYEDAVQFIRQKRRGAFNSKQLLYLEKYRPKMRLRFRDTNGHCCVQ

[1] = FDA-approved drug screen, activity compared to DMSO

Compound	% Phosphatase Activity (compared to DMSO) PRL-1 (recombinant PRL-1) [%]	% Phosphatase Activity (compared to DMSO) PRL-3 (recombinant PRL-3) [%]	% Phosphatase Activity (compared to DMSO) PRL-2 (recombinant PRL-2) [%]	% Phosphatase Activity (compared to DMSO) PRL-1 (recombinant PRL-1; [1]) [%]	% Phosphatase Activity (compared to DMSO) PRL-3 (recombinant PRL-3; [1]) [%]	% Phosphatase Activity (compared to DMSO) PRL-2 (recombinant PRL-2; [1]) [%]
CC(C)OC(=O)[C@H](C)N[P@](=O)(CO[C@H](C)Cn1cnc2c(N)ncnc21)Oc1ccccc1 [Tenofovir Alafenamide (GS-7340)]	94	91	74			
CC(C)OC(=O)OCOP(=O)(CO[C@H](C)Cn1cnc2c(N)ncnc21)OCOC(=O)OC(C)C [Tenofovir Disoproxil Fumarate]				95	82	93
C[C@H](Cn1cnc2c(N)ncnc21)OCP(=O)(O)O [Tenofovir]				103	100	120
CN1C(C(=O)Nc2ccccn2)=C(O)c2sccc2S1(=O)=O [Tenoxicam]				92	71	75
COc1cc2nc(N3CCN(C(=O)C4CCCO4)CC3)nc(N)c2cc1OC (stereo not drawn) [Terazosin HCl]				510	324	644
COc1cc2nc(N3CCN(C(=O)C4CCCO4)CC3)nc(N)c2cc1OC (stereo not drawn) [Terazosin]				595	448	423
CN(C/C=C/C#CC(C)(C)C)Cc1cccc2ccccc12 [Terbinafine HCl]				100	86	108
CC(C)(C)NCC(O)c1cc(O)cc(O)c1 (stereo not drawn) [Terbutaline Sulfate]				95	101	97
CC(C)(C)c1ccc(C(O)CCCN2CCC(C(O)(c3ccccc3)c3ccccc3)CC2)cc1 (stereo not drawn) [Terfenadine]				96	91	100
C/C(O)=C(\C#N)C(=O)Nc1ccc(C(F)(F)F)cc1 [Teriflunomide]				95	84	98
CC1(O)CCC(C(C)(C)O)CC1.O (stereo not drawn) [Terpin (hydrate)]				88	80	92
COc1cc2c(cc1OC)C1CC(=O)C(CC(C)C)CN1CC2 (stereo not drawn) [Tetrabenazine (Xenazine)]				81	84	89
CCCCNc1ccc(C(=O)OCCN(C)C)cc1 [Tetracaine HCl]				99	88	116
CN(C)[C@@H]1C(O)=C(C(N)=O)C(=O)[C@@]2(O)C(O)=C3C(=O)c4c(O)cccc4[C@@](C)(O)[C@H]3C[C@@H]12 [Tetracycline HCl]				99	61	86
Cl.c1ccc2c(c1)CCCC2C1=NCCN1 (stereo not drawn) [Tetrahydrozoline HCl]				111	58	109
Cl.c1ccc(C2CN3CCSC3=N2)cc1 (stereo not drawn) [Tetramisole HCl]	97	102	83			
O=C1CCC(N2C(=O)c3ccccc3C2=O)C(=O)N1 (stereo not drawn) [Thalidomide]				97	79	91
Cn1c(=O)c2[nH]cnc2n(C)c1=O [Theophylline]				105	84	98
c1ccc2[nH]c(-c3cscn3)nc2c1 [Thiabendazole]				99	119	99
CS(=O)(=O)c1ccc([C@@H](O)[C@@H](CO)NC(=O)C(Cl)Cl)cc1 [Thiamphenicol]				103	81	125

Compound	% Phosphatase Activity (compared to DMSO) PRL-1 (recombinant PRL-1) [%]	% Phosphatase Activity (compared to DMSO) PRL-3 (recombinant PRL-3) [%]	% Phosphatase Activity (compared to DMSO) PRL-2 (recombinant PRL-2) [%]	% Phosphatase Activity (compared to DMSO) PRL-1 (recombinant PRL-1; [1]) [%]	% Phosphatase Activity (compared to DMSO) PRL-3 (recombinant PRL-3; [1]) [%]	% Phosphatase Activity (compared to DMSO) PRL-2 (recombinant PRL-2; [1]) [%]
CSc1ccc2c(c1)N(CCC1CCCCN1C)c1ccccc1S2 (stereo not drawn) [Thioridazine HCl]	95	97	104			
Cc1ccsc1C(=CCCN1CCC[C@@H](C(=O)O)C1)c1sccc1C [Tiagabine hydrochloride]				100	83	97
Cc1ccsc1C(=CCCN1CCC[C@@H](C(=O)O)C1)c1sccc1C [Tiagabine]				100	78	104
CCCSc1nc(N[C@@H]2C[C@H]2c2ccc(F)c(F)c2)c2nnn([C@@H]3C[C@H](OCCO)[C@@H](O)[C@H]3O)c2n1 [Ticagrelor]				97	85	94
O=c1sn(-c2cccc3ccccc23)c(=O)n1Cc1ccccc1 [Tideglusib]				107	98	120
CN(C)c1cc(NC(=O)CNC(C)(C)C)c(O)c2c1C[C@H]1C[C@H]3[C@H](N(C)C)C(O)=C(C(N)=O)C(=O)[C@@]3(O)C(O)=C1C2=O [Tigecycline]				36	24	45
CC[C@H]1OC(=O)C[C@@H](O)[C@H](C)[C@@H](O[C@@H]2O[C@H](C)[C@@H](O)[C@H](N(C)C)[C@H]2O)[C@@H](CCN2C[C@H](C)C[C@H](C)C2)C[C@@H](C)C(=O)/C=C/C(C)=C/[C@@H]1CO[C@@H]1O[C@H](C)[C@@H](O)[C@@H](OC)[C@H]1OC [Tilmicosin]				89	71	88
CC(C)(C)NC[C@H](O)COc1nsnc1N1CCOCC1 [Timolol Maleate]				107	87	111
CCS(=O)(=O)CCn1c([N+](=O)[O-])cnc1C [Tinidazole]				107	84	113
Clc1ccc(C(Cn2ccnc2)OCc2ccsc2Cl)c(Cl)c1 (stereo not drawn) [Tioconazole]	83	84	92			
CC(S)C(=O)NCC(=O)O (stereo not drawn) [Tiopronin]				90	98	119
C[N+]1(C)[C@@H]2C[C@@H](OC(=O)C(O)(c3cccs3)c3cccs3)C[C@H]1[C@@H]1O[C@@H]12 [Tiotropium Bromide hydrate]				95	84	115
O=c1oc2cc(O)ccc2s1 [Tioxolone]				102	92	124
O=C1NC(=O)[C@@H](c2cn3c4c(cccc24)CCC3)[C@@H]1c1c[nH]c2ccccc12 [Tivantinib (ARQ 197)]				95	90	83
COc1cc2nccc(Oc3ccc(NC(=O)Nc4cc(C)on4)c(Cl)c3)c2cc1OC [Tivozanib (AV-951)]				107	75	101
Clc1ccc2nsnc2c1NC1=NCCN1 [Tizanidine HCl]	93	76	92			
NC[C@H]1O[C@H](O[C@H]2[C@H](O)[C@@H](O[C@H]3O[C@H](CO)[C@@H](O)[C@H](N)[C@H]3O)[C@H](N)C[C@@H]2N)[C@H](N)C[C@@H]1O [Tobramycin]				99	91	97
C[C@@H]1CCN(C(=O)CC#N)C[C@@H]1N(C)c1ncnc2[nH]ccc12.O=C(O)CC(O)(CC(=O)O)C(=O)O [Tofacitinib (CP-690550) Citrate]				109	104	91
C[C@@H]1CCN(C(=O)CC#N)C[C@@H]1N(C)c1ncnc2[nH]ccc12 [Tofacitinib (CP-690550,Tasocitinib)]				117	96	114
